These results are taken from patent US20040132795A1, “Methods to screen and treat individuals with glaucoma or the propensity to develop glaucoma” (priority 2001, published 2004).

Structures are written as SMILES.

Type in all cases: in vivo, human
Assay [1] can be described thus: Treatment with diclofenac in glaucomic patients possessing both the mt-1 and mt-11 mutations, mean diurnal IOP. The conditions noted are these: 0.1% diclofenac.
The nature of assay [2]: Treatment with diclofenac for 6 months in the presence of the TIGR mt-1 mutation, mean diurnal IOP. From the text:
After treatment for 6 months with varying amounts of diclofenac in the presence of the mt-1 mutation, the following results are observed: […]

Assay [3] is described as follows: Treatment with diclofenac in glaucomic patients having the TIGRmt-11 mutation, mean diurnal IOP. The settings on record: 0.1% diclofenac. From the text: The same procedures described in Example II were followed with respect to administering Diclofenac to glaucomic patients having the […]-11 mutation.
The mark [4] stands for this setting: 0.03% diclofenac, mt-1 mutation present.
[5] abbreviates: 0.06% diclofenac, mt-1 mutation present.
Setting [6] is: 0.1% diclofenac, mt-1 mutation present.

On to `O=C(O)Cc1ccccc1Nc1c(Cl)cccc1Cl` [Diclofenac], for which the “Mean Change in Diurnal IOP at 6 Months” value in assay [1] (mt-1 and mt-11 mutations absent) is on record as −0.6 mm Hg; in assay [1] (mt-1 and mt-11 mutations present), −2.9 mm Hg; in assay [2] (0.1% diclofenac, mt-1 mutation absent), −1.5 mm Hg; in assay [2] (setting [6]), −2.1 mm Hg; in assay [3] (mt-11 mutation absent), −1.3 mm Hg; in assay [3] (mt-11 mutation present) it was −2.0 mm Hg. Moreover, the “Percentage of Patients Exhibiting a Decrease in Diurnal IOP >= 2 mm Hg After 6 Months of Treatment” value in assay [2] (setting [4]) was 36%; in assay [2] (setting [5]), 40%; in assay [2] (setting [6]), 64%. Moreover, the results for the “Percentage of subjects exhibiting a Mean Diurnel IOP < 22 mm Hg After 6 Months of Treatment” value in assay [2] (setting [4]), in assay [2] (setting [5]) and in assay [2] (setting [6]) were 55%, 60% and 64%, respectively.
